Literature values in patent publication US5830503A (Andrx Pharmaceuticals, Inc., priority 1996, dated 1998).

Details: as compared to intravenous administration; first pass effect

COc1ccc([C@@H]2Sc3ccccc3N(CCN(C)C)C(=O)[C@@H]2OC(C)=O)cc1 [diltiazem]
absolute bioavailability: about 40%
